According to ChEMBL document CHEMBL1201862, “PubChem BioAssay data set” (2004):
Active and inactive are the calls of the source.

Experiments:
[1] = DRD fibroblast viability loss – cell-based, non-viral oncogenic, luminescence, dose response (AID 1934); assay type: functional; settings: Homo sapiens
BJ [2] = experiment: BJ-TERT-LT-ST fibroblast viability loss – cell-based, RAS-independent, luminescence, dose response (AID 1935); assay type: functional; settings: Homo sapiens;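 further: BJ fibroblasts immortalized with TERT plus LT and ST oncogenes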
BJ [3] = experiment: BJ-TERT fibroblast viability loss – cell-based, RAS-independent, luminescence, dose response (AID 1933); assay type: functional; settings: Homo sapiens
BJ [4] = experiment: cells; assay type: functional, cell-based; settings: Homo sapiens
[5] = toxicity toward HepG2 liver cells – cell-based, plate reader, cherry-pick, antagonist series, cytotoxicity control, dose response (AID 743416); assay type: functional
[6] = A549 cell cytotoxicity, dose response, cytotoxicity control, plate reader, cherry-pick, antagonist series (AID 743412); assay type: functional, cell-based
[7] = blockers of bursicon-stimulated LGR2 cAMP reporter – cell-based, HEK293, CRE-luciferase reporter, cherry pick, set 2, dose response (AID 743343); assay type: functional;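 further: transfected cells were stimulated with diluted bursicon conditioned medium after compound addition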
[8] = blockade of melanocortin 4 receptor signaling – cell-based, plate reader, cherry pick, counter-screen for LGR2 antagonist project, dose response (AID 743444); assay type: functional;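 further: transfected HEK 293 cells stimulated with alpha-MSH peptide; potency of inhibitors of the alpha-MSH evoked signal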
[9] = viability loss in HEK293 cells – cell-based, plate reader, cherry-picked samples, cytotoxicity control, dose response (AID 743446); assay type: functional
[10] = intracellular Trypanosoma cruzi inhibitors in host cells – cell-based, plate reader, cherry-pick samples, set 3, dose response (AID 651818); assay type: functional;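 further: compounds incubated with infected cells for about four days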
Large T antigen = Large T antigen (Simian virus 40, UniProt P03070); assay type: functional, Betapolyomavirus macacae;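 further: Confirmatory-stage PubChem screen for compounds that inhibit SV40 T antigen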
[11] = blockers of HIV-1 ZM109 envelope-driven cell-cell fusion – HeLa effector, CEM target cells, luciferase, cherry-pick, dose response (AID 652058); assay type: functional, cell-based;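 further: luciferase signal from HIV-1 Env mediated cell-cell fusion of effector and target cells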
[12] = HIV-1 AD8 envelope cell-cell fusion blockers – cherry-pick, dose response (AID 652062); assay type: functional, cell-based;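 further: luciferase signal from cell-cell fusion driven by HIV-1 clade B AD8 Env; potency is for inhibitors of fusion seen as a drop in luminescence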
[13] = blockers of HIV-1 envelope-mediated cell-cell fusion – cherry-pick, dose response (AID 652057); assay type: functional, cell-based
Cytochrome P450 3A4 [14] = target: T1, Cytochrome P450 3A4 (Homo sapiens, UniProt P08684); settings: Potency
[15] = target: T2, Rac GTPase-activating protein 1 (Homo sapiens, UniProt Q9H0H5); experiment: blockers of MgcRacGAP-driven Rac1 GTP hydrolysis – biochemical, ADP Hunter fluorescence, primary and confirmatory, confirmation (AID 624330); assay type: functional
T2 sequence (Q9H0H5 whole entry): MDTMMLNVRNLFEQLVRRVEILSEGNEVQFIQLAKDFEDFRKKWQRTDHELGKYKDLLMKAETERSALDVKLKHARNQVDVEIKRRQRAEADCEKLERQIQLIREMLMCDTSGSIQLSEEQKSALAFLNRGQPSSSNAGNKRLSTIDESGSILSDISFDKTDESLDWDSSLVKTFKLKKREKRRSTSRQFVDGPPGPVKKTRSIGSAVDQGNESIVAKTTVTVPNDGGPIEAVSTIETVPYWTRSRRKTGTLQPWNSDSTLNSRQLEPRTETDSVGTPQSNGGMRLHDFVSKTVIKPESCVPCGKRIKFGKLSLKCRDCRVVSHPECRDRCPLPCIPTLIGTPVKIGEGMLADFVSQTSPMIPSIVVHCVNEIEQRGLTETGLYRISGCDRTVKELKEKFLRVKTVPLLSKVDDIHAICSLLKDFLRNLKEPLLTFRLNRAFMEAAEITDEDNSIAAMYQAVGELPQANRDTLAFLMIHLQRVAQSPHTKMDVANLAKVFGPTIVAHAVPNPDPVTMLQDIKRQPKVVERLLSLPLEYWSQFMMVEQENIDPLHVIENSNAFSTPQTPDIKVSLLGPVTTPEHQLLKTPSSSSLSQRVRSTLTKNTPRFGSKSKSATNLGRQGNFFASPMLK

Cytochrome P450 2C19 = Cytochrome P450 2C19 (Homo sapiens, UniProt P33261); experiment: Cytochrome panel assay with activity outcomes. Panel member name: p450-cyp2c19 Compounds with AC50 equal or less than 10 uM are considered active; assay type: functional; settings: read-out: AC50
Cytochrome P450 2C9 = Cytochrome P450 2C9 (Homo sapiens, UniProt P11712)
Cytochrome P450 3A4 [16] = target: T1, Cytochrome P450 3A4
[17] = growth inhibition of yeast DHODH-expressing 3D7 parasites – SYBR Green, dry powder samples, dose response (AID 1159570); assay type: functional, cell-based;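 further: parasite growth measured after 72 hours of compound exposure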
[18] = growth inhibition of PfATP4-mutant resistant parasites – NITD609-resistant line, SYBR Green, dry powder, dose response (AID 1159571); assay type: functional, cell-based;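 further: parasites synchronized at ring stage by sorbitol before testing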
[19] = P. falciparum Dd2 growth inhibitors, dose response, SYBR Green, cherry-picked samples (AID 1159567); assay type: functional, cell-based
[20] = Dd2 malaria parasite growth inhibition potency – SYBR Green, dry powder samples, dose response (AID 1159566); assay type: functional, cell-based;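 further: potency for growth inhibition with lower SYBR green DNA signal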

Chain of Large T antigen (P03070 whole entry, the tested form may be a part): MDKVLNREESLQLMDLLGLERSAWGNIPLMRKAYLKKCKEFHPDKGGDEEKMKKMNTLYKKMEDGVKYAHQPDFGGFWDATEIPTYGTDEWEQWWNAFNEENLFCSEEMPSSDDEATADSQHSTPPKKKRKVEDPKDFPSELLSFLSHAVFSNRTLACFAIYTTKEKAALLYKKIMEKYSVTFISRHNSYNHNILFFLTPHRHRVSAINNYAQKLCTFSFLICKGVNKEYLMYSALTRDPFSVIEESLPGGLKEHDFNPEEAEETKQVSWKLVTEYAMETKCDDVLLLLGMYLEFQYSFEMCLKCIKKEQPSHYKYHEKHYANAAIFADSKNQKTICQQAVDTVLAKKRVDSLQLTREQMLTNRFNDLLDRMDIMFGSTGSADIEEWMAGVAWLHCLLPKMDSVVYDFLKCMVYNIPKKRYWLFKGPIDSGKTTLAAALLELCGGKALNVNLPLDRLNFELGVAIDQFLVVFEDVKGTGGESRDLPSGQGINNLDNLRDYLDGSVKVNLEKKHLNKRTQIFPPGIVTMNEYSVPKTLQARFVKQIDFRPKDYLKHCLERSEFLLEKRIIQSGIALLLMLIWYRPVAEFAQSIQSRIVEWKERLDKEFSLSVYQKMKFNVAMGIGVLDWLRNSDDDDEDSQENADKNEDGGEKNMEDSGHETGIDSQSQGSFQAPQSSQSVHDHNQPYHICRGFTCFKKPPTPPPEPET
T1 sequence (P08684 whole entry): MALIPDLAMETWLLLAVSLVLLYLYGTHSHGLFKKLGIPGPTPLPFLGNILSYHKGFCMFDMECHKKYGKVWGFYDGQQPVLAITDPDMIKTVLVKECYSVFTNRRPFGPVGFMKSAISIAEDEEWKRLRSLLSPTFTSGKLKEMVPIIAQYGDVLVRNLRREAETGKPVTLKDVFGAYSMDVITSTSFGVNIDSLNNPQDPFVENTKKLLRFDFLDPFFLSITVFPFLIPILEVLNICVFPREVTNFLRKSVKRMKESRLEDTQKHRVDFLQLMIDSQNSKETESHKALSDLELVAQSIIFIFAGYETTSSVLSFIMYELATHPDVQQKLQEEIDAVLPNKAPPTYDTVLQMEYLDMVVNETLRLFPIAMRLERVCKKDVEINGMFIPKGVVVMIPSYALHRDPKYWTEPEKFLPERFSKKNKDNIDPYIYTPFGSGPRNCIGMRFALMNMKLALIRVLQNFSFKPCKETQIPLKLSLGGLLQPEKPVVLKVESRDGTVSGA
Chain of Cytochrome P450 2C9 (P11712 whole entry): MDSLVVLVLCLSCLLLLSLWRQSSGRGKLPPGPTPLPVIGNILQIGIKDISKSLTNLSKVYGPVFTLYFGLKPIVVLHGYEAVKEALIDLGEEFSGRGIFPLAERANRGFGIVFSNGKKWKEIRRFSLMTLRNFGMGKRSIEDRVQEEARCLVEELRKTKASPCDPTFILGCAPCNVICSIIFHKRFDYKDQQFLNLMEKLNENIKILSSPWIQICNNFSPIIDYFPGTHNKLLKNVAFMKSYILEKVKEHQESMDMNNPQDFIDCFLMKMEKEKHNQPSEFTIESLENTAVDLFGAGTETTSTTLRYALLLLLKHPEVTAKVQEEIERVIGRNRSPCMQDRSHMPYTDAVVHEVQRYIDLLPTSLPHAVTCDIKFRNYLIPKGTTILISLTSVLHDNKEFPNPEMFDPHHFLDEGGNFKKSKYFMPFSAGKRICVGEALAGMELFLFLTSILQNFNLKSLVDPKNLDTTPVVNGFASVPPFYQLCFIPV
Chain of Cytochrome P450 2C19 (P33261 whole entry): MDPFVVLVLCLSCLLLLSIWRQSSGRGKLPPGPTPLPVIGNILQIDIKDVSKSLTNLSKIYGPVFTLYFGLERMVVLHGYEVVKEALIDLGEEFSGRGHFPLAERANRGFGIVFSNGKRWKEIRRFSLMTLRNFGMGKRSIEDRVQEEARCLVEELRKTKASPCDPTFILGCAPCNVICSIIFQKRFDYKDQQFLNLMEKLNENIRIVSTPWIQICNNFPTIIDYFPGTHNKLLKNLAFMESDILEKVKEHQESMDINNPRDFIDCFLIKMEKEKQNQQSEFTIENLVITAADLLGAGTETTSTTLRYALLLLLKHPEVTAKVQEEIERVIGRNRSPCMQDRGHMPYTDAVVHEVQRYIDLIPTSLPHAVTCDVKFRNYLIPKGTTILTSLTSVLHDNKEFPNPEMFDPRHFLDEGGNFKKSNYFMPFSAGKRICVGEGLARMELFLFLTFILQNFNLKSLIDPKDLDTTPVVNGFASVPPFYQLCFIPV

With `Cc1ccc2cc(CN(Cc3ccco3)C(=O)c3cccs3)c(O)nc2c1` the EC50 [1] was 4.87 µM (active), the EC50 (BJ [2]) was 5.07 µM (active) and the EC50 (BJ [3]) was 13 µM (active). For the same molecule, the EC50 (BJ [4]) was 74.4 µM (active).

For `COc1ccc(-c2cc3nc(NCC4CCCCC4)n(C)c(=O)c3s2)cc1OC`, the AC50 [5] was > 52 µM (inactive), the AC50 [6] was 45.8 µM (active) and the AC50 [7] was 12.8 µM (active). For the same molecule, the AC50 [8] was 2.51 µM (active).

For `C[C@H](CO)N1C[C@H](C)[C@@H](CN(C)Cc2ccc3c(c2)OCO3)Oc2c(NC(=O)Nc3ccc(C(F)(F)F)cc3)cccc2C1=O`, the AC50 [9] was 17.3 µM (active), the AC50 [5] was 21.2 µM (active) and the AC50 [6] was 25.6 µM (active). For the same molecule, the AC50 [7] was 19.6 µM (active), the AC50 [8] was 11.9 µM (active) and the AC50 [10] was 2.74 µM (active).

For `C[C@H]1CN([C@@H](C)CO)C(=O)c2cccc(NC(=O)CCCCCC(=O)Nc3ccccc3N)c2O[C@@H]1CN(C)Cc1ccc2c(c1)OCO2`, the AC50 [10] was 1.72 µM (active).

For `C[C@@H]1CN([C@@H](C)CO)C(=O)c2cccc(NC(=O)c3ccc(-c4nccs4)cc3)c2O[C@H]1CN(C)Cc1ccc(Oc2ccccc2)cc1`, the AC50 [10] was 3.03 µM (active).

In the case of `COc1ccc(S(=O)(=O)Nc2ccc3c(c2)CC(=O)N([C@H](C)CO)C[C@@H](C)[C@@H](CN(C)S(=O)(=O)c2cccs2)O3)cc1`, the AC50 [10] was 6.01 µM (active).

With `C[C@@H]1CN([C@@H](C)CO)C(=O)Cc2cc(NS(=O)(=O)c3ccc(F)cc3)ccc2O[C@@H]1CN(C)Cc1ccc(Oc2ccccc2)cc1` the AC50 [10] was 3.56 µM (active).

For `Cc1cccc(C(=O)Nc2ccc(O)cc2)c1`, the IC50 (Large T antigen) was 10.7 µM (active).

With `CC(C)CC#Cc1ccc2c(c1)O[C@@H](CN(C)S(=O)(=O)c1cccc(F)c1)[C@@H](C)CN([C@H](C)CO)S2(=O)=O` the AC50 [11] was 0.919 µM (active), the AC50 [12] was 26.5 µM (active) and the AC50 [13] was 5.91 µM (active).

With `COc1ccc(NC(=O)Nc2ccc3c(c2)C(=O)N([C@@H](C)CO)C[C@H](C)[C@H](CN(C)S(=O)(=O)c2ccc(OC)cc2)O3)cc1` the AC50 [11] was 4.38 µM (active), the AC50 [12] was 17.5 µM (active) and the AC50 [13] was 4.26 µM (active).

In the case of `CCN1C[C@@]2(COC(=O)c3ccccc3N3C(=O)CC(C)C3=O)CC[C@H](OC)[C@]34C5C[C@H]6[C@@H](OC)C[C@@](O)(C5[C@H]6OC)C(O)(C13)[C@@H](OC)C24` (stereo not given in full), the AC50 (Cytochrome P450 3A4 [14]) was 20 µM (inconclusive).

For `COc1ccccc1CCn1cnc(-c2ccccc2F)c1CC(C)C`, the AC50 [9] was > 52 µM (inactive), the AC50 [5] was 27.2 µM (active) and the AC50 [6] was 27 µM (active). For the same molecule, the AC50 [7] was 17.5 µM (active) and the AC50 [8] was 18.9 µM (active).

With `OC(c1ccccc1)(c1ccccc1)C1CCN(CCCOc2cccc(C(F)(F)F)c2)CC1` the AC50 [9] was 16.9 µM (active), the AC50 [5] was 10.9 µM (active) and the AC50 [6] was 9.53 µM (active). The AC50 [7] was 21.7 µM (active) and the AC50 [8] was 19.6 µM (active).

For `C/N=c1\scc(C)n1/N=C/c1cc(Br)c(O)c(OC)c1`, the IC50 (Large T antigen) was 5.8 µM (active) and the IC50 [15] was 14.4 µM (active).

With `CC12CCC(C(=O)Nc3ccccc3Br)(C/C1=N\O)C2(C)C` (stereo not given) the AC50 (Cytochrome P450 2C19) was 31.6 µM (inconclusive), the AC50 (Cytochrome P450 2C9) was “inconclusive” and the AC50 (Cytochrome P450 3A4 [16]) was 20 µM (inconclusive).

In the case of `C[C@H]1CN([C@@H](C)CO)C(=O)c2c(c3ccccc3n2C)-c2ccccc2CO[C@@H]1CN(C)C(=O)Nc1cccc(C(F)(F)F)c1`, the AC50 [17] was 0.871 µM (active), the AC50 [18] was 0.376 µM (active) and the AC50 [19] was 1.13 µM (active). The AC50 [20] was 0.442 µM (active).
